For four compounds, TGI results are on record in PubChem BioAssay (NCI).

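Cells were grown in 96-well plates and exposed to each compound for 48 hours at five concentrations; endpoints were interpolated linearly between bracketing concentrations, or set to the highest concentration if not reached. TGI: concentration producing complete growth inhibition.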 Where only a bound is given, the exact number is not on record here.

One experiment has as its system CCRF-CEM leukemia. Description: NCI-60 cell line screen, 48 h.
`C[C@@H](NC(=O)[C@@H]1C[C@]1(C)COC(=O)c1cc([N+](=O)[O-])cc([N+](=O)[O-])c1)c1cccc2ccccc12`: the TGI is over 100 µM.
With `COC(=O)c1cc(=O)nc2sc3cccc(C)c3n12`, the TGI was over 100 µM.
Same read-out and setting: to `O=c1[nH]c(Nc2cccc(CC(F)(F)F)c2)nc2nc[nH]c12` belongs over 100 µM.

The next experiment has as its system CAKI-1 renal. Kind of experiment: NCI-60 cell line screen, 48 h.
`CCCCCCCCCCCCCCNC(=O)CCC(NC(=O)c1ccc(N(C)Cc2cnc3nc(N)nc(N)c3n2)cc1)C(=O)NCCCCCCCCCCCCCC` (configuration not stated) registered a TGI of over 100 µM.
The same measure, in the same setting: to `C[C@@H](NC(=O)[C@@H]1C[C@]1(C)COC(=O)c1cc([N+](=O)[O-])cc([N+](=O)[O-])c1)c1cccc2ccccc12` belongs over 100 µM; to `COC(=O)c1cc(=O)nc2sc3cccc(C)c3n12`, 61 µM.
The same measure, in the same setting: the figure for `O=c1[nH]c(Nc2cccc(CC(F)(F)F)c2)nc2nc[nH]c12` is over 100 µM.

Another experiment deals with SK-MEL-28 melanoma. Kind of experiment: NCI-60 cell line screen, 48 h.
For the compound `CCCCCCCCCCCCCCNC(=O)CCC(NC(=O)c1ccc(N(C)Cc2cnc3nc(N)nc(N)c3n2)cc1)C(=O)NCCCCCCCCCCCCCC` (configuration not stated), the TGI amounted to 40.7 µM.
In the case of `C[C@@H](NC(=O)[C@@H]1C[C@]1(C)COC(=O)c1cc([N+](=O)[O-])cc([N+](=O)[O-])c1)c1cccc2ccccc12`, the TGI is over 100 µM.
Same read-out and setting: the figure for `COC(=O)c1cc(=O)nc2sc3cccc(C)c3n12` is over 100 µM.
Turning to `O=c1[nH]c(Nc2cccc(CC(F)(F)F)c2)nc2nc[nH]c12`, the TGI is over 100 µM.

The next experiment relates to SF-539 CNS. Description: NCI-60 cell line screen, 48 h.
The compound `CCCCCCCCCCCCCCNC(=O)CCC(NC(=O)c1ccc(N(C)Cc2cnc3nc(N)nc(N)c3n2)cc1)C(=O)NCCCCCCCCCCCCCC` (configuration not stated) had a TGI of 16.3 µM.
On the same count and under the same terms, to `COC(=O)c1cc(=O)nc2sc3cccc(C)c3n12` belongs over 100 µM; to `O=c1[nH]c(Nc2cccc(CC(F)(F)F)c2)nc2nc[nH]c12`, over 100 µM.

The subject of a further experiment is ACHN renal. Kind of experiment: NCI-60 cell line screen, 48 h.
In turn, `CCCCCCCCCCCCCCNC(=O)CCC(NC(=O)c1ccc(N(C)Cc2cnc3nc(N)nc(N)c3n2)cc1)C(=O)NCCCCCCCCCCCCCC` (configuration not stated) gave a TGI of 30.1 µM.
Same read-out and setting: the figure for `C[C@@H](NC(=O)[C@@H]1C[C@]1(C)COC(=O)c1cc([N+](=O)[O-])cc([N+](=O)[O-])c1)c1cccc2ccccc12` is over 100 µM.
The same measure, in the same setting: the figure for `COC(=O)c1cc(=O)nc2sc3cccc(C)c3n12` is 42.8 µM; for `O=c1[nH]c(Nc2cccc(CC(F)(F)F)c2)nc2nc[nH]c12` it is over 100 µM.

The test system of another experiment is HCT-116 colon. Kind of experiment: NCI-60 cell line screen, 48 h.
Turning to `CCCCCCCCCCCCCCNC(=O)CCC(NC(=O)c1ccc(N(C)Cc2cnc3nc(N)nc(N)c3n2)cc1)C(=O)NCCCCCCCCCCCCCC` (configuration not stated), the TGI was over 100 µM.
Same read-out and setting: the figure for `C[C@@H](NC(=O)[C@@H]1C[C@]1(C)COC(=O)c1cc([N+](=O)[O-])cc([N+](=O)[O-])c1)c1cccc2ccccc12` is over 100 µM; for `COC(=O)c1cc(=O)nc2sc3cccc(C)c3n12` it is over 100 µM; for `O=c1[nH]c(Nc2cccc(CC(F)(F)F)c2)nc2nc[nH]c12` it is over 100 µM.

A further experiment concerns BT-549 breast. Description: NCI-60 cell line screen, 48 h.
In turn, `CCCCCCCCCCCCCCNC(=O)CCC(NC(=O)c1ccc(N(C)Cc2cnc3nc(N)nc(N)c3n2)cc1)C(=O)NCCCCCCCCCCCCCC` (configuration not stated) gave a TGI of 41.1 µM.
The same measure, in the same setting: the figure for `C[C@@H](NC(=O)[C@@H]1C[C@]1(C)COC(=O)c1cc([N+](=O)[O-])cc([N+](=O)[O-])c1)c1cccc2ccccc12` is over 100 µM; for `COC(=O)c1cc(=O)nc2sc3cccc(C)c3n12` it is over 100 µM; for `O=c1[nH]c(Nc2cccc(CC(F)(F)F)c2)nc2nc[nH]c12` it is over 100 µM.

In the next experiment the test system is NCI-H23 lung. Description: NCI-60 cell line screen, 48 h.
In turn, `CCCCCCCCCCCCCCNC(=O)CCC(NC(=O)c1ccc(N(C)Cc2cnc3nc(N)nc(N)c3n2)cc1)C(=O)NCCCCCCCCCCCCCC` (configuration not stated) came in with a TGI of 20.8 µM.
`C[C@@H](NC(=O)[C@@H]1C[C@]1(C)COC(=O)c1cc([N+](=O)[O-])cc([N+](=O)[O-])c1)c1cccc2ccccc12` came in with a TGI of over 100 µM.
For `COC(=O)c1cc(=O)nc2sc3cccc(C)c3n12`, the TGI is over 100 µM.
Consider `O=c1[nH]c(Nc2cccc(CC(F)(F)F)c2)nc2nc[nH]c12`, for which the TGI was over 100 µM.

For another experiment, the system named is M14 melanoma. Description: NCI-60 cell line screen, 48 h.
In the case of `CCCCCCCCCCCCCCNC(=O)CCC(NC(=O)c1ccc(N(C)Cc2cnc3nc(N)nc(N)c3n2)cc1)C(=O)NCCCCCCCCCCCCCC` (configuration not stated), the TGI was over 40.4 µM.
Regarding `C[C@@H](NC(=O)[C@@H]1C[C@]1(C)COC(=O)c1cc([N+](=O)[O-])cc([N+](=O)[O-])c1)c1cccc2ccccc12`, the TGI is over 100 µM.
The same measure, in the same setting: the figure for `COC(=O)c1cc(=O)nc2sc3cccc(C)c3n12` is over 100 µM.
Still for that read-out and setting: to `O=c1[nH]c(Nc2cccc(CC(F)(F)F)c2)nc2nc[nH]c12` belongs over 100 µM.

A further experiment concerns OVCAR-5 ovarian. Description: NCI-60 cell line screen, 48 h.
Consider `CCCCCCCCCCCCCCNC(=O)CCC(NC(=O)c1ccc(N(C)Cc2cnc3nc(N)nc(N)c3n2)cc1)C(=O)NCCCCCCCCCCCCCC` (configuration not stated), for which the TGI was over 48.3 µM.
Still for that read-out and setting: the figure for `C[C@@H](NC(=O)[C@@H]1C[C@]1(C)COC(=O)c1cc([N+](=O)[O-])cc([N+](=O)[O-])c1)c1cccc2ccccc12` is over 100 µM; for `COC(=O)c1cc(=O)nc2sc3cccc(C)c3n12` it is over 100 µM.
Still for that read-out and setting: to `O=c1[nH]c(Nc2cccc(CC(F)(F)F)c2)nc2nc[nH]c12` belongs over 100 µM.

Another experiment has as its system SNB-19 CNS. Kind of experiment: NCI-60 cell line screen, 48 h.
`CCCCCCCCCCCCCCNC(=O)CCC(NC(=O)c1ccc(N(C)Cc2cnc3nc(N)nc(N)c3n2)cc1)C(=O)NCCCCCCCCCCCCCC` (configuration not stated) registered a TGI of over 61.4 µM.
On the same count and under the same terms, to `C[C@@H](NC(=O)[C@@H]1C[C@]1(C)COC(=O)c1cc([N+](=O)[O-])cc([N+](=O)[O-])c1)c1cccc2ccccc12` belongs over 100 µM; to `COC(=O)c1cc(=O)nc2sc3cccc(C)c3n12`, over 100 µM; to `O=c1[nH]c(Nc2cccc(CC(F)(F)F)c2)nc2nc[nH]c12`, over 100 µM.

The test system of another experiment is SF-268 CNS. Description: NCI-60 cell line screen, 48 h.
In turn, `CCCCCCCCCCCCCCNC(=O)CCC(NC(=O)c1ccc(N(C)Cc2cnc3nc(N)nc(N)c3n2)cc1)C(=O)NCCCCCCCCCCCCCC` (configuration not stated) came in with a TGI of 22.4 µM.
The same measure, in the same setting: to `C[C@@H](NC(=O)[C@@H]1C[C@]1(C)COC(=O)c1cc([N+](=O)[O-])cc([N+](=O)[O-])c1)c1cccc2ccccc12` belongs over 100 µM; to `COC(=O)c1cc(=O)nc2sc3cccc(C)c3n12`, over 100 µM; to `O=c1[nH]c(Nc2cccc(CC(F)(F)F)c2)nc2nc[nH]c12`, over 100 µM.

A further experiment has as its system SF-295 CNS. Description: NCI-60 cell line screen, 48 h.
In the case of `CCCCCCCCCCCCCCNC(=O)CCC(NC(=O)c1ccc(N(C)Cc2cnc3nc(N)nc(N)c3n2)cc1)C(=O)NCCCCCCCCCCCCCC` (configuration not stated), the TGI is 28.9 µM.
Still for that read-out and setting: the figure for `C[C@@H](NC(=O)[C@@H]1C[C@]1(C)COC(=O)c1cc([N+](=O)[O-])cc([N+](=O)[O-])c1)c1cccc2ccccc12` is over 100 µM; for `COC(=O)c1cc(=O)nc2sc3cccc(C)c3n12` it is over 100 µM.
Same read-out and setting: to `O=c1[nH]c(Nc2cccc(CC(F)(F)F)c2)nc2nc[nH]c12` belongs over 100 µM.

In the next experiment the test system is RPMI-8226 leukemia. Description: NCI-60 cell line screen, 48 h.
The compound `C[C@@H](NC(=O)[C@@H]1C[C@]1(C)COC(=O)c1cc([N+](=O)[O-])cc([N+](=O)[O-])c1)c1cccc2ccccc12` had a TGI of over 100 µM.
The compound `COC(=O)c1cc(=O)nc2sc3cccc(C)c3n12` displayed a TGI of 67.9 µM.
`O=c1[nH]c(Nc2cccc(CC(F)(F)F)c2)nc2nc[nH]c12` registered a TGI of over 100 µM.

In a further experiment the test system is OVCAR-4 ovarian. Description: NCI-60 cell line screen, 48 h.
`CCCCCCCCCCCCCCNC(=O)CCC(NC(=O)c1ccc(N(C)Cc2cnc3nc(N)nc(N)c3n2)cc1)C(=O)NCCCCCCCCCCCCCC` (configuration not stated) yielded a TGI of 40.9 µM.
Same read-out and setting: the figure for `C[C@@H](NC(=O)[C@@H]1C[C@]1(C)COC(=O)c1cc([N+](=O)[O-])cc([N+](=O)[O-])c1)c1cccc2ccccc12` is over 100 µM; for `COC(=O)c1cc(=O)nc2sc3cccc(C)c3n12` it is over 100 µM.
The compound `O=c1[nH]c(Nc2cccc(CC(F)(F)F)c2)nc2nc[nH]c12` registered a TGI of over 100 µM.
